PubChem BioAssay AID602459 (Sanford-Burnham Center for Chemical Genomics, 2012)

Target: Neurotensin receptor type 1 (Homo sapiens) (UniProt P30989)
Assay: agonism at neurotensin receptor 1, calcium readout – cell-based, fluorescence, calcium flux, dose response, SAR follow-up (AID 602459)
Conditions: NTR1-expressing cells, agonist mode

Chain of Neurotensin receptor type 1 (Homo sapiens) (P30989 whole entry, looked up): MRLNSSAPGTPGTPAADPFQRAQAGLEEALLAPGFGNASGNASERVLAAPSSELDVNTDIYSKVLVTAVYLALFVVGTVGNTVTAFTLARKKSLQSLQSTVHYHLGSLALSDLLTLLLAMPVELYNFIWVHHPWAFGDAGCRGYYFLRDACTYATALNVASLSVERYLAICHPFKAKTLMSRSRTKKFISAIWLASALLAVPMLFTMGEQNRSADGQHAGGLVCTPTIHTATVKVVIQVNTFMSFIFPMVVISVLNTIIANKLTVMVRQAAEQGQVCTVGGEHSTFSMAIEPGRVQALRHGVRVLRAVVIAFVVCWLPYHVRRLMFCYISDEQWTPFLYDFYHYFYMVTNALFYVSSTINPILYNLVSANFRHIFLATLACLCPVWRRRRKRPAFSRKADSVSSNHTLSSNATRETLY

Row | EC50 [nM] | Compound
1 | 298 | COc1cccc(OC)c1-c1nc(C(=O)N[C@@H](CC(C)C)C(=O)O)cn1-c1ccnc2cc(Cl)ccc12
2 | 1500 | COc1cc2c3nnc(-c4ccc(F)cc4)c-3cn(Cc3cccc(C)c3)c2cc1OC
3 | < 156 | COc1cccc(OC)c1-c1cc(C(=O)N[C@@H](CC(C)C)C(=O)O)nn1-c1ccnc2cc(Cl)ccc12
